Laboratory results as given in patent US8158656B2, “2-indolinone derivatives as multi-target protein kinase inhibitors and histone deacetylase inhibitors” (Shenzhen Chipscreen Biosciences Ltd., priority 2008, dated 2012).

Key:
PDGFRβ NIH-3T3 cells = assay: PDGF ligand-dependent cell proliferation; assay type: cell-based; conditions: Mus musculus, NIH3T3; NIH-3T3 expressing human PDGFRβ, PDGF BB 50 ng/ml, 72 hours, MTS
Procedure: Measurement of in vivo inhibition on receptor ligand-dependent cell proliferation: PDGF dependent cell proliferation:
NIH-3T3 mouse fibroblasts cell line engineered to stably express human PDGFRβ was constructed and used to evaluate PDGF dependent cell proliferation. PDGFRβ NIH-3T3 cells were plated into 96-well plates at 5,000 per well and incubated with serum-free medium for 24 hours. Compounds and PDGF BB (50 ng/ml) were added and incubated for 72 hours in serum-free medium. The effects on proliferation were determined by addition of MTS reagent (Promega) according to the instruction, incubation for 2 hours at 37° C. in CO2 incubator, and record the absorbance at 490 nm using an ELISA plate reader.

c-Kit = biological target: T1, c-Kit (Homo sapiens, UniProt P10721); assay: c-KIT kinase ELISA bioassay; assay type: biochemical; conditions: ELISA kinase assay, 20 μM ATP
T1 construct: purchased Cell Signaling
Procedure: This assay is used to measure in vitro kinase activity of c-KIT in an ELISA assay.
• 1. Streptavidin coated, 96-well, white plate • 2. Phospho-Tyrosine Monoclonal Antibody (P-Tyr-100) (Cell Signaling) • 3. HRP-labeled anti-mouse IgG (Upstate) • 4. HTScan™ Tyrosine Kinase Buffer (4×) • 5. DTT (1000×. 1.25 M) • 6. ATP (10 mM) • 7. KDR (Tyr996) Biotinylated Peptide Substrate (Cell Signaling) • 8. c-KIT Kinase (recombinant, human) (Cell Signaling) • 9. Wash Buffer: 1× PBS, 0.05% Tween-20 (PBS/T) • 10. Bovine Serum Albumin (BSA) • 11. Stop Buffer: 50 mM EDTA pH 8 • 12. Enhanced chemiluminescence (ECL) (Amersham) Procedure for performing the assay in 96-well plate: • 1. Add 10 μl 10 mM ATP to 1.25 ml 6 μM substrate peptide. Dilute the mixture with dH20 to 2.5 ml to make 2× ATP/substrate cocktail ([ATP]=40 μM, [substrate]=3 μm). • 2. Immediately transfer enzyme from −80° C. to ice. Allow enzyme to thaw on ice. • 3. Microcentrifuge briefly at 4° C. to bring liquid to the bottom of the vial. Return immediately to ice. • 4. Add 10 μl of DTT (1.25 M) to 2.5 ml of 4× HTScan™ Tyrosine Kinase Buffer (240 mM HEPES pH 7.5, 20 mM MgCl2, 20 mM MnCl2, 12 μM Na3VO4) to make DTT/Kinase buffer. • 5. Transfer 1.25 ml of DTT/Kinase buffer to enzyme tube to make 4× reaction cocktail ([enzyme]=4 ng/μL in 4× reaction cocktail). • 6. Incubate 12.5 μl of the 4× reaction cocktail with 12.5 μl/well of prediluted compound of interest (usually around 10 μM) for 5 minutes at room temperature. • 7. Add 25 μl of 2× ATP/substrate cocktail to 25 μl/well preincubated reaction cocktail/compound. Final Assay Conditions for a 50 μl Reaction: • 60 mM HEPES pH 7.5 • 5 mM MgCl2 • 5 mM MnCl2 • 3 μM Na3VO4 • 1.25 mM DTT • 20 μM ATP • 1.5 μM peptide • 100 ng c-KIT Kinase • 8. Incubate reaction plate at room temperature for 30 minutes. • 9. Add 50 μl/well Stop Buffer (50 mM EDTA, pH 8) to stop the reaction. • 10. Transfer 25 μl of each reaction and 75 μl dH2O/well to a 96-well streptavidincoated plate and incubate at room temperature for 60 minutes. • 11. Wash three times with 200 μl/well PBS/T • 12. Dilute primary antibody, Phospho-Tyrosine Monoclonal Antibody (P-Tyr-100), 1:1000 in PBS/T with 1% BSA. Add 100 μl/well of primary antibody. • 13. Incubate at room temperature for 60 minutes. • 14. Wash three times with 200 μl/well PBS/T • 15. Dilute HRP labeled anti-mouse IgG 1:500 in PBS/T with 1% BSA. Add 100 μl/well diluted antibody. • 16. Incubate at room temperature for 30 minutes. • 17. Wash five times with 200 μl/well PBS/T. • 18. Add 100 μl/well ECL Solution. • 19. Detect luminescence with appropriate Plate Reader. Flt3 Bioassay

VEGFR2 = VEGFR2 (Homo sapiens, UniProt P35968); assay: VEGF receptor kinase ELISA bioassay; assay type: biochemical; conditions: ELISA kinase assay, 200 μM ATP
Class I HDAC = assay: P21 reporter assay in HeLa cells; assay type: cell-based, human; conditions: for Class I HDAC (P21 reporter assay) % Max Resp of CS055 at 3 μM: relative to CS055 at 3 μM
Procedure: HDAC subtype selectivity inhibition assay of tested compounds was carried out by several reporter gene assays experiments. Briefly, HeLa cells were seeded in 96-well plates the day before transfection to give a confluence of 50-80%. Cells were transfected with one of reporter gene plasmid containing a promoter sequence or response element upstream of a luciferase gene construct using FuGene6 transfection reagent according to the manufacturer's instruction (Roche). The promoters or response elements including p21-promoter, gdf11-promoter, MEF-binding element (MEF2), Nur77-promoter were fused upstream to the luciferase gene reporter construct. For normalizing the transfection efficiency, a GFP expression plasmid was cotransfected. Cells were allowed to express protein for 24 hours followed by addition of individual compounds or the vehicle (DMSO). 24 hours later the cells were harvested, and the luciferase assay and GFP assay were performed using corresponding assay kits according to the manufacturer's instructions (Promega).

HL60 = assay: Tumor cell proliferation (MTS), HL60; assay type: cell-based; conditions: Homo sapiens, HL-60, HL60, 72 hours
Procedure: (§1) Measurement of in vivo cell proliferation:
(§2) Tumor cells were trypsinized and plated into 96-well plates at 3,000 per well and incubated in complete medium with 10% FBS for 24 hours. Compounds were added over a final concentration range of 100 μmol/L to 100 nmol/L in 0.1% DMSO and incubated for 72 hours in complete medium. The effects on proliferation were determined by addition of MTS reagent (Promega) according to the instruction, incubation for 2 hours at 37° C. in CO2 incubator, and record the absorbance at 490 nm using an ELISA plate reader.

Hut-78 = assay: Tumor cell proliferation (MTS), Hut-78; assay type: cell-based; conditions: Homo sapiens, HuT78, Hut-78, 72 hours
Procedure: as §1, §2

Raji = assay: Tumor cell proliferation (MTS), Raji; assay type: cell-based; conditions: Homo sapiens, 72 hours
Procedure: as §1, §2

Bel-7402 = assay: Tumor cell proliferation (MTS), Bel-7402; assay type: cell-based; conditions: Homo sapiens, Bel-7402, 72 hours
Procedure: as §1, §2

MCF7 = assay: Tumor cell proliferation (MTS), MCF7; assay type: cell-based; conditions: Homo sapiens, MCF7, 72 hours
Procedure: as §1, §2

MDA-MB-231 = assay: Tumor cell proliferation (MTS), MDA-MB-231; assay type: cell-based; conditions: Homo sapiens, MDA-MB-231, 72 hours
Procedure: as §1, §2

Sequence of VEGFR2 (P35968 807-1356): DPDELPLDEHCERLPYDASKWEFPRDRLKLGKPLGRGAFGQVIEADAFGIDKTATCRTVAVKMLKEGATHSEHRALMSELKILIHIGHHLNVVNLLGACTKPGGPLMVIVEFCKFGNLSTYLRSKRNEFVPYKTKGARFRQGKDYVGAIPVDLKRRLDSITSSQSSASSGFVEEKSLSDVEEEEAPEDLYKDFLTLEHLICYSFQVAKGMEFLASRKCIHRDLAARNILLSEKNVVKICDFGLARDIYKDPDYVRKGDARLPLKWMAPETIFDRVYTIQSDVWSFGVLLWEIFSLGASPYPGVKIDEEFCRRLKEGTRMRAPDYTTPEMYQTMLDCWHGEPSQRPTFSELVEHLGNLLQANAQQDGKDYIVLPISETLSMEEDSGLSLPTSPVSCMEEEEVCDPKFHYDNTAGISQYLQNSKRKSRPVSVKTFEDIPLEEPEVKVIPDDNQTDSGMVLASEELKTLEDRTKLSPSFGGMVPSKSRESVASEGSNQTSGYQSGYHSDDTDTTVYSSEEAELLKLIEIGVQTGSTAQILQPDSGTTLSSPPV
T1 sequence (P10721 26-976): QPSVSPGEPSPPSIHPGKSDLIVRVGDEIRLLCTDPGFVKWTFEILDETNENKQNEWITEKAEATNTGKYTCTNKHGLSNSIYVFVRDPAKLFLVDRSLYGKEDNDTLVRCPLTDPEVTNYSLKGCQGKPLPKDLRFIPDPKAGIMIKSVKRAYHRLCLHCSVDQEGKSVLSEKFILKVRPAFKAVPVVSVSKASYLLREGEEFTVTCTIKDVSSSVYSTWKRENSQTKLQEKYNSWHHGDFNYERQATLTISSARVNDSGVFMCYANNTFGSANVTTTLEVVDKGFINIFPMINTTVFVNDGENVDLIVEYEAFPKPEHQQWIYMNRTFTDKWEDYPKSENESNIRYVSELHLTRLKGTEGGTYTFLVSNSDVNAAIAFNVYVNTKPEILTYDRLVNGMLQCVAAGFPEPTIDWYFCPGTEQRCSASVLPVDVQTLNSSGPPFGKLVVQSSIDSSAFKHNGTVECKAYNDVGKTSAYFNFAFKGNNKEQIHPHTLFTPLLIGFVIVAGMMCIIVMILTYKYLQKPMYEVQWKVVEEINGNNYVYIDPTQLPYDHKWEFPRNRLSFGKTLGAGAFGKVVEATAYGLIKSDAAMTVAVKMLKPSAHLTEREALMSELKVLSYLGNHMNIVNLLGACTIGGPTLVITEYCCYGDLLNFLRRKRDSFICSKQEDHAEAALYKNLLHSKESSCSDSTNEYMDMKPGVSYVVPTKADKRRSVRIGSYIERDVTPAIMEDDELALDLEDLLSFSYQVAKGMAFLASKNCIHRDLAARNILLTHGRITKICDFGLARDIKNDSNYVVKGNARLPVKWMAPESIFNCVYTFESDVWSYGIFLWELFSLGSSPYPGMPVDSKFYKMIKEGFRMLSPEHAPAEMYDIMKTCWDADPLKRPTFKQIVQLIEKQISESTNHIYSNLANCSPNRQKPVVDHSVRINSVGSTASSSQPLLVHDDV

| Structure (SMILES) | GI50 (PDGFRβ NIH-3T3 cells) | IC50 (c-Kit) | IC50 (VEGFR2) | EC50 (Class I HDAC; 24 hours) | Class I HDAC (P21 reporter assay) % Max Resp of CS055 at 3 μM (Class I HDAC) | GI50 (HL60) | GI50 (Hut-78) | GI50 (Raji) | GI50 (Bel-7402) | GI50 (MCF7) | GI50 (MDA-MB-231) |
| --- | --- | --- | --- | --- | --- | --- | --- | --- | --- | --- | --- |
| Cc1[nH]c(/C=C2\C(=O)Nc3ccc(F)cc32)c(C)c1C(=O)NCCCNc1ccc(C(=O)Nc2ccccc2N)cn1 [Example 6, (Z)-N-(2-aminophenyl)-6-(3-(2-((5-fluoro-2-oxoindolin-3-ylidene)methyl)-3,5-dimethyl-1H-pyrrole-4-carboxamido)propylamino)nicotinamide] | > 1000 nM | 76 nM | 45 nM | 2.5 µM | 74.6% | > 60 µM | > 60 µM | 3.45 µM | > 60 µM | > 60 µM | > 60 µM |
| Cc1[nH]c(/C=N/N=C2\C(=O)Nc3ccc(F)cc32)c(C)c1C(=O)NCCNc1ccc(C(=O)Nc2ccccc2N)cn1 [Example 4, N-(2-aminophenyl)-6-(2-(2-(((5-fluoro-2-oxoindolin-3-ylidene)hydrazono)-methyl)-3,5-dimethyl-1H-pyrrole-4-carboxamido)ethylamino)nicotinamide] | > 1000 nM | > 1000 nM | 12 nM | – | 3.3% | > 60 µM | > 60 µM | > 60 µM | > 60 µM | > 60 µM | > 60 µM |
| Cc1[nH]c(/C=C2\C(=O)Nc3ccc(F)cc32)c(C)c1C(=O)NCCNc1ccc(C(=O)Nc2ccc(F)cc2N)cn1 [Example 13, (Z)-N-(2-amino-4-fluorophenyl)-6-(2-(2-((5-fluoro-2-oxoindolin-3-ylidene)-methyl)-3,5-dimethyl-1H-pyrrole-4-carboxamido)ethylamino)nicotinamide] | > 1000 nM | 534 nM | 43 nM | – | 2.1% | > 60 µM | > 60 µM | > 60 µM | > 60 µM | > 60 µM | > 60 µM |
| Cc1[nH]c(/C=N/N=C2\C(=O)Nc3ccc(F)cc32)c(C)c1C(=O)NCCCCNc1ccc(C(=O)Nc2ccccc2N)cn1 [Example 10, N-(2-aminophenyl)-6-(4-(2-(((5-fluoro-2-oxoindolin-3-ylidene)hydrazono)-methyl)-3,5-dimethyl-1H-pyrrole-4-carboxamido)butylamino)nicotinamide] | > 1000 nM | > 1000 nM | > 1000 nM | – | 7.3% | 6.28 µM | > 60 µM | > 60 µM | > 60 µM | > 60 µM | > 60 µM |
